Results published in paper PMC12320299 (Chemical Science, 2025).

Assays:
SW480 cancer cells = test: Proteome profiling of compound-treated SW480 cancer cells (24 h, approx. IC50, CYT and NE fractions); assay type: cell-based, human
Method: To gain insight into potential modes of action and derive structure–activity relationships on a molecular level, proteomic profiling experiments were carried out based on label-free quantification (LFQ) by nano-liquid chromatography tandem mass spectrometry (nLC-MS/MS). […] Six replicates were used per condition. The perturbations were evaluated at subcellular resolution by fractionating cells into cytoplasmic (CYT) and nuclear (NE) protein fractions. Those have been separately proteolytically digested and analysed (Fig. 3A). The perturbations with the 3-Et-NQ and 3-Morph-NQ complexes were performed against their respective solvent-treated controls (CON), yielding a total of 72 samples. […] Statistical significance of individual protein regulations was calculated by multiple testing-corrected P-values based on 5% false discovery rate (FDR = 0.05 and S0 = 0.1).
The position of each group represents the summed fold-changes of the individual proteins in the group according to the subcellular space, i.e., CYT and NE fractions, while the size represents the number of proteins in each group. […]
Proteome profiling of compound-treated SW480 cancer cells […]
cells per well and left to adhere in complete cell culture medium. After 24 h, the medium was exchanged with fresh complete medium (DMSO mock control) or fresh medium containing […]
solution in DMSO, respectively) and incubated for another 24 h. Each condition was carried out in hexuplicates. The cells were processed according to a nucleocytoplasmic fractionation protocol as previously described.3 All steps were performed on ice. The medium was removed, and the cells were washed twice with 1×PBS (phosphate buffered saline, 3 mL). Then, PBS was thoroughly removed. Isotonic lysis buffer (10 mM HEPES, 10 mM NaCl, 3.5 mM MgCl2, 1 mM EGTA, 0.25 M Sucrose, 0.5% Triton X-100) containing protease inhibitors (1% PMSF, Sigma, and 1% protease and phosphatase inhibitor cocktail, Roche) was added to the flasks, the cells were scraped off and transferred into labelled 15 mL Falcon tubes. The cellular membrane was ruptured using shear stress by pressing the cell suspension through a syringe 9–12 times. Membrane rupture with intact nuclei was monitored under a microscope. After centrifugation (960 g, 5 min), the supernatant containing the cytoplasmic (CYT) proteins was transferred into new tubes containing ice-cold ethanol (1 : 5, HPLC grade) and precipitated […]
overnight at –20 °C. The pellet containing the nuclei was incubated with a hypertonic solution (10 mM Tris-HCl, 1 mM EDTA and 0.5 M NaCl) and subsequently diluted 1:10 with NP-40 buffer (10 mm Tris-HCl, 1 mm EDTA and 0.5% Triton X-100) containing protease inhibitors (1% PMSF, Sigma, and 1% protease and phosphatase inhibitor cocktail, Roche). After centrifugation (960 g, 5 min), the soluble nuclear (NE) proteins were also transferred into new tubes containing ice-cold ethanol (1 : 5, HPLC grade) and precipitated overnight at –20 °C.
The precipitated proteins were finally pelleted by centrifugation (5000 g, 30 min, 4 °C), the solution was decanted and the pellet dried under vacuum.

SW480 = system: SW480; parameters: method as in earlier work; settings: 96 h incubation; ref 48 (ESI Ref. 1); cited from earlier work
CH1/PA-1 = system: CH1/PA-1; parameters: method as in Ref. 1 (ESI); settings: 96 h incubation; ref Ref. 1 (ESI); cited from earlier work
[1] = cytoplasmic fraction, FDR = 0.05, S0 = 0.1
[2] = nuclear fraction, FDR = 0.05, S0 = 0.1

With Cc1ccc(C(C)C)cc1.O=C1C(CN2CCOCC2)=C2[O][Ru][O]C2(n2cccn2)c2ccccc21 (stereo not drawn) [Compound 1b] the “GO BP DNA damage response, summed fold-changes” value (SW480 cancer cells; NE fraction) was 22.6, the “GO BP DNA repair, summed fold-changes” value (SW480 cancer cells; NE fraction) was 35.2 and the “GO BP DNA replication, summed fold-changes” value (SW480 cancer cells; NE fraction) was 6.1. The “GO BP Intracellular protein transport, summed fold-changes” value (SW480 cancer cells; NE fraction) was -31.2, the “GO BP Mitotic cytokinesis, summed fold-changes” value (SW480 cancer cells; NE fraction) was 4.0 and the “GO BP Negative regulation of DNA-templated transcription, summed fold-changes” value (SW480 cancer cells; NE fraction) was 65.6. The “GO BP Nucleocytoplasmic transport, summed fold-changes” value (SW480 cancer cells; NE fraction) was 26.1, the “GO BP Positive regulation of DNA-templated transcription, summed fold-changes” value (SW480 cancer cells; NE fraction) was 71.8 and the “GO BP Proteasome-mediated ubiquitin-dependent protein catabolic process, summed fold-changes” value (SW480 cancer cells; NE fraction) was 26.0. The “GO BP Protein folding, summed fold-changes” value (SW480 cancer cells; NE fraction) was -27.7, the “GO BP Protein stabilization, summed fold-changes” value (SW480 cancer cells; NE fraction) was -4.7 and the “GO BP Protein transport, summed fold-changes” value (SW480 cancer cells; NE fraction) was -9.8. For the same molecule, the “GO BP Purine nucleotide biosynthetic process, summed fold-changes” value (SW480 cancer cells; NE fraction) was -7.4, the “GO BP RNA splicing, summed fold-changes” value (SW480 cancer cells; NE fraction) was 29.0 and the “GO BP Regulation of apoptotic process, summed fold-changes” value (SW480 cancer cells; NE fraction) was 4.6. For the same molecule, the “GO BP Regulation of cell fate specification, summed fold-changes” value (SW480 cancer cells; NE fraction) was 10.8, the “GO BP Regulation of double-strand break repair, summed fold-changes” value (SW480 cancer cells; NE fraction) was 14.0 and the “GO BP Regulation of stem cell differentiation, summed fold-changes” value (SW480 cancer cells; NE fraction) was 12.8. For the same molecule, the “GO BP Response to oxidative stress, summed fold-changes” value (SW480 cancer cells; NE fraction) was -22.0, the “GO BP Ribosomal small subunit biogenesis, summed fold-changes” value (SW480 cancer cells; NE fraction) was 25.3 and the “GO BP Ribosome biogenesis, summed fold-changes” value (SW480 cancer cells; NE fraction) was 6.9. For the same molecule, the “GO BP Ubiquitin-dependent protein catabolic process, summed fold-changes” value (SW480 cancer cells; NE fraction) was 4.9, the “GO BP Vesicle-mediated transport, summed fold-changes” value (SW480 cancer cells; NE fraction) was -26.9 and the “GO BP mRNA processing, summed fold-changes” value (SW480 cancer cells; NE fraction) was 25.4. For the same molecule, the “GO BP mRNA splicing, via spliceosome, summed fold-changes” value (SW480 cancer cells; NE fraction) was 37.9, the “GO BP mRNA transport, summed fold-changes” value (SW480 cancer cells; NE fraction) was 17.5 and the “GO BP rRNA processing, summed fold-changes” value (SW480 cancer cells; NE fraction) was 40.4. The “GO CC Azurophil granule lumen, summed fold-changes” value (SW480 cancer cells; NE fraction) was -24.9, the “GO CC Chromatin, summed fold-changes” value (SW480 cancer cells; NE fraction) was 92.4 and the “GO CC Chromosome, centromeric region, summed fold-changes” value (SW480 cancer cells; NE fraction) was 9.3. For the same molecule, the “GO CC Chromosome, summed fold-changes” value (SW480 cancer cells; NE fraction) was 28.8, the “GO CC Chromosome, telomeric region, summed fold-changes” value (SW480 cancer cells; NE fraction) was 30.4 and the “GO CC Condensin complex, summed fold-changes” value (SW480 cancer cells; NE fraction) was 1.4. The “GO CC Cytoskeleton, summed fold-changes” value (SW480 cancer cells; NE fraction) was -23.7, the “GO CC Endosome, summed fold-changes” value (SW480 cancer cells; NE fraction) was -21.5 and the “GO CC Extracellular exosome, summed fold-changes” value (SW480 cancer cells; NE fraction) was -325.4. The “GO CC Fibrillar center, summed fold-changes” value (SW480 cancer cells; NE fraction) was 22.1, the “GO CC Ficolin-1-rich granule lumen, summed fold-changes” value (SW480 cancer cells; NE fraction) was -29.3 and the “GO CC Focal adhesion, summed fold-changes” value (SW480 cancer cells; NE fraction) was -55.9. The “GO CC Intracellular membrane-bounded organelle, summed fold-changes” value (SW480 cancer cells; NE fraction) was -21.7, the “GO CC Kinetochore, summed fold-changes” value (SW480 cancer cells; NE fraction) was 23.6 and the “GO CC Lipid droplet, summed fold-changes” value (SW480 cancer cells; NE fraction) was -14.4. For the same molecule, the “GO CC Lysosome, summed fold-changes” value (SW480 cancer cells; NE fraction) was -44.7, the “GO CC Microtubule cytoskeleton, summed fold-changes” value (SW480 cancer cells; NE fraction) was -18.2 and the “GO CC Mitochondrion, summed fold-changes” value (SW480 cancer cells; NE fraction) was -134.2. The “GO CC Nuclear envelope, summed fold-changes” value (SW480 cancer cells; NE fraction) was 21.5, the “GO CC Nuclear speck, summed fold-changes” value (SW480 cancer cells; NE fraction) was 55.6 and the “GO CC Nucleolus, summed fold-changes” value (SW480 cancer cells; NE fraction) was 104.6. The “GO CC Nucleoplasm, summed fold-changes” value (SW480 cancer cells; NE fraction) was 270.4, the “GO CC Nucleus, summed fold-changes” value (SW480 cancer cells; NE fraction) was 135.2 and the “GO CC Proteasome complex, summed fold-changes” value (SW480 cancer cells; NE fraction) was 12.2. For the same molecule, the “GO CC Protein-containing complex, summed fold-changes” value (SW480 cancer cells; NE fraction) was -21.9, the “GO CC Ribonucleoprotein complex, summed fold-changes” value (SW480 cancer cells; NE fraction) was 3.5 and the “GO CC SCAR complex, summed fold-changes” value (SW480 cancer cells; NE fraction) was -6.0. The “GO CC Small-subunit processome, summed fold-changes” value (SW480 cancer cells; NE fraction) was 29.5, the “GO CC Spliceosomal complex, summed fold-changes” value (SW480 cancer cells; NE fraction) was 22.0 and the “GO CC Transcription repressor complex, summed fold-changes” value (SW480 cancer cells; NE fraction) was 12.8. The “GO CC Vesicle, summed fold-changes” value (SW480 cancer cells; NE fraction) was -24.1, the “KEGG pathway ATP-dependent chromatin remodeling, summed fold-changes” value (SW480 cancer cells; NE fraction) was 35.8 and the “KEGG pathway Apoptosis, summed fold-changes” value (SW480 cancer cells; NE fraction) was -20.6. The “KEGG pathway Basal transcription factors, summed fold-changes” value (SW480 cancer cells; NE fraction) was 10.6, the “KEGG pathway Biosynthesis of amino acids, summed fold-changes” value (SW480 cancer cells; NE fraction) was -32.4 and the “KEGG pathway Biosynthesis of cofactors, summed fold-changes” value (SW480 cancer cells; NE fraction) was -31.7. For the same molecule, the “KEGG pathway Cell cycle, summed fold-changes” value (SW480 cancer cells; NE fraction) was 19.2, the “KEGG pathway Nucleocytoplasmic transport, summed fold-changes” value (SW480 cancer cells; NE fraction) was 34.5 and the “KEGG pathway Polycomb repressive complex, summed fold-changes” value (SW480 cancer cells; NE fraction) was 17.0. The “KEGG pathway Proteasome, summed fold-changes” value (SW480 cancer cells; NE fraction) was 16.8, the “KEGG pathway Ribosome biogenesis in eukaryotes, summed fold-changes” value (SW480 cancer cells; NE fraction) was 28.9 and the “N° proteins down-regulated, CYT” value (SW480 cancer cells; [1]) was 8. For the same molecule, the “N° proteins upregulated, CYT” value (SW480 cancer cells; [1]) was 8, the “N° proteins down-regulated, NE” value (SW480 cancer cells; [2]) was 772 and the “N° proteins upregulated, NE” value (SW480 cancer cells; [2]) was 710. For the same molecule, the “regulated proteins in CYT” value (SW480 cancer cells; up- and down-regulated) was 16, the IC50 (SW480) was 33 ± 2 µM and the IC50 (CH1/PA-1) was 150 ± 20 µM.
